Test results published in PubChem BioAssay (NCI).
Several values for one entry are separate records, joined by “and”; a condition that tells them apart may be missing. Identical values can stand only once.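 A five-concentration, 48-hour dose response in 96-well plates underlies each endpoint, interpolated linearly between surrounding concentrations. GI50 = concentration required for 50% inhibition of growth. TGI denotes the concentration required for complete inhibition of growth.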

Tests used:
Assay in all cases: NCI tumour cell line growth inhibition, 48 h
DU-145 prostate = system: DU-145 prostate
RPMI-8226 leukemia = system: RPMI-8226 leukemia
SK-MEL-2 melanoma = system: SK-MEL-2 melanoma
OVCAR-4 ovarian = system: OVCAR-4 ovarian
HCC-2998 colon = system: HCC-2998 colon
OVCAR-3 ovarian = system: OVCAR-3 ovarian
HOP-92 NSCLC = system: HOP-92 NSCLC
NCI-H522 lung = system: NCI-H522 lung
DLD-1 colon = system: DLD-1 colon
SNB-78 CNS = system: SNB-78 CNS

Row | Structure (SMILES) | TGI (DU-145 prostate) | TGI (RPMI-8226 leukemia) | TGI (SK-MEL-2 melanoma) | TGI (OVCAR-4 ovarian) | TGI (HCC-2998 colon) | TGI (OVCAR-3 ovarian) | TGI (HOP-92 NSCLC) | TGI (NCI-H522 lung) | GI50 (DU-145 prostate) | GI50 (RPMI-8226 leukemia) | GI50 (SK-MEL-2 melanoma) | GI50 (OVCAR-4 ovarian) | GI50 (HCC-2998 colon) | GI50 (OVCAR-3 ovarian) | GI50 (HOP-92 NSCLC) | GI50 (NCI-H522 lung) | TGI (DLD-1 colon) | TGI (SNB-78 CNS) | GI50 (SNB-78 CNS)
1 | O=C(Nc1ccn(C2CC(O)C(COC(c3ccccc3)(c3ccccc3)c3ccccc3)O2)c(=O)n1)c1ccccc1 (configuration not stated) | 17.8 µM | 5.2 µM | 7.25 µM | 7.88 µM | 21.6 µM | 3.52 µM | 3.59 µM | 13.4 µM | – | – | – | – | – | – | – | – | – | – | –
2 | CC[C@H](C)[C@H](NC(=O)C12C3C4C1C1C2C3C41NC)C(=O)N(C)[C@H](C[C@@H](OC(C)=O)c1nc(C(=O)N[C@@H](Cc2ccccc2)C[C@H](C)C(=O)OC)cs1)C(C)C (some centres not stated) | > 14.3 µM | > 6.29 µM | > 14.3 µM | > 14.3 µM | > 14.3 µM | 1.02 µM | > 14.3 µM | 0.967 µM | 0.446 µM | 0.143 µM | 0.223 µM | 1.75 µM | 0.369 µM | 0.0872 µM | > 6.28 µM | 0.0561 µM | – | – | –
3 | O=C(N/C(=C\c1ccc([N+](=O)[O-])cc1)c1nc2ccccc2s1)c1ccccc1 | – | 44.1 µM | 80.5 µM | 81.3 µM | > 100 µM | > 100 µM | 68.8 µM | – | – | – | – | – | – | – | – | – | 58.7 µM | > 100 µM | –
4 | COc1ccc(/C=C/C(=N\NC(=O)c2ccccc2)c2sc(Nc3ccc([N+](=O)[O-])cc3)nc2C)cc1OC | – | – | 33 µM | 36.9 µM | > 100 µM | 61.5 µM | 6.41 µM | 17.4 µM | – | – | – | – | – | – | – | – | 28.8 µM | 61.9 µM | –
5 | CC(=O)ON(OCc1ccc2ccccc2c1)C(C)=O | > 100 µM | > 100 µM | > 100 µM | > 100 µM | > 100 µM | > 100 µM | > 100 µM | > 100 µM | > 100 µM | > 100 µM | > 100 µM | > 100 µM | > 100 µM | > 100 µM | 34.8 µM | > 100 µM | – | – | –
6 | S=c1ssnc1-c1cc2ccccc2o1 | 20.4 µM | 25.7 µM | 28.3 µM | > 100 µM | 34.4 µM | 49.2 µM | 43.2 µM | 45.9 µM | 7.35 µM | 2.36 µM | 13.8 µM | 21.6 µM | 16.4 µM | 15.6 µM | 18.5 µM | 20.7 µM | – | – | –
7 | Cc1cc(Cl)ccc1N=C1NC(=O)C(CC(=O)Nc2cccc(Cl)c2)S1 (configuration not stated) | – | – | > 100 µM | > 100 µM | > 100 µM | > 100 µM | 69.8 µM | > 100 µM | – | – | – | – | – | – | – | – | > 100 µM | > 100 µM | –
8 | Cc1nc2c(C)ccc([N+](=O)[O-])c2c(NCCCN(C)C)c1C | > 100 µM | > 100 µM | > 70.6 µM | > 100 µM | > 55.4 µM | > 100 µM | > 100 µM | > 100 µM | – | – | – | – | – | – | – | – | – | – | –
9 | N=C(N)c1ccc2oc3ccc(C(=N)N)cc3c(=O)c2c1 | > 100 µM | > 100 µM | > 100 µM | > 100 µM | > 100 µM | > 100 µM | > 100 µM | > 100 µM | – | – | – | – | – | – | – | – | – | – | –
10 | CCn1cc(C(=O)O)c(=O)c2cc(F)c(N3CCN(S(=O)(=O)c4ccc(Cl)cc4Cl)CC3)cc21 | 6.75 µM | 7.59 µM | 5.8 µM | > 100 µM | 5.17 µM | 5.79 µM | 5.22 µM | 3.73 µM | 2.81 µM | 2.55 µM | 2.75 µM | 2.58 µM | 2.29 µM | 2.54 µM | 1.22 µM | 1.81 µM | – | – | –
11 | COc1cc(C(=O)c2cnc(-c3c[nH]c4cccc(C)c34)[nH]2)cc(OC)c1OC | > 100 µM | 19.8 µM | 30.7 µM | > 100 µM | 29.4 µM | 0.0125 µM | 18.3 µM | 0.0224 µM | 0.00756 µM | 0.0399 µM | 0.00745 µM | 0.529 µM | 0.0183 µM | 0.00332 µM | – | – | – | – | –
12 | Nc1ccc(CC[C@H]2CCC/C=C/[C@@H]3C[C@H](O)C[C@H]3[C@H](O)/C=C/C(=O)O2)cc1 | > 100 µM | 0.121 µM | 0.18 µM | 2.73 µM | – | 0.0769 µM | 0.53 µM | 0.375 µM | 0.107 µM | 0.0322 µM | 0.0381 µM | 0.0339 µM | 0.0266 µM | 0.0282 µM | 0.0436 µM | 0.0816 µM | – | – | –
13 | CNC(=O)CCN1CCN(CC/C=C2\c3ccccc3Sc3ccc(Cl)cc32)CC1 | 26.4 µM | 18.2 µM | 32.4 µM | 28.2 µM | 24.2 µM | 27 µM | 27 µM | 43.8 µM | 11.9 µM | 3.65 µM | 14.1 µM | 13.2 µM | 7.94 µM | 11.8 µM | 5.75 µM | 20 µM | – | – | –
14 | COC(=O)[C@@]12OC[C@]34[C@H]([C@@H](O)[C@@H]1O)[C@@]1(C)CC(=O)C(O)=C(C)[C@@H]1C[C@H]3OC(=O)[C@H](OC(=O)/C=C(\C)C(C)C)[C@@H]24 | 0.0451 µM and 0.0293 µM | 0.0129 µM and < 0.0409 µM and 0.0545 µM | 0.0195 µM and 0.0303 µM | 0.017 µM and 0.0225 µM | 0.00342 µM | 0.0151 µM and 0.0911 µM | 0.0378 µM and 0.0921 µM | 0.00723 µM | 0.02 µM | – | 0.00517 µM | 0.00334 µM | – | – | – | – | – | 0.00899 µM and 0.0427 µM and 0.0707 µM | 0.00089 µM
15 | COc1cc(N=Nc2cc(Cc3ccc(N(C)C)cc3)c(N)cc2N(C)C)c2ncccc2c1 | 2.17 µM | 2.1 µM | 4.17 µM | 0.549 µM | 2.66 µM | 1.08 µM | 1.5 µM | 2.23 µM | 0.59 µM | 0.313 µM | 0.562 µM | 0.175 µM | 1.16 µM | 0.0406 µM | 0.266 µM | 0.398 µM | – | – | –
16 | COC(=O)c1c(C)nc(C)c2c1C(=O)C(Br)=C(NCc1ccccc1)C2=O | 13 µM | 11.7 µM | 6.63 µM | 3 µM | 10.5 µM | 6.16 µM | 5.78 µM | 6.09 µM | 4.26 µM | 3.24 µM | 2.52 µM | 1.55 µM | 3.4 µM | 2.27 µM | 2.46 µM | 2.25 µM | – | – | –
17 | COC(=O)C(=O)C(C(=O)C(=O)Nc1ccc([N+](=O)[O-])cc1)c1nc2ccccc2[nH]c1=O (configuration not stated) | – | > 100 µM | > 100 µM | > 100 µM | – | > 100 µM | > 100 µM | > 100 µM | – | – | – | – | – | – | – | – | > 100 µM | – | –
18 | COc1cc2c(oc(=O)c3c4occc4cc(OC)c23)c2cccc(O)c12 | – | > 100 µM | – | > 100 µM | > 100 µM | > 100 µM | > 100 µM | > 100 µM | – | – | – | – | – | – | – | – | > 100 µM | > 100 µM | –
